Measured values as given in patent US20230295115A1, “SUBSTITUTED ISOQUINOLINYLMETHYL AMIDES, ANALOGUES THEREOF, AND METHODS USING SAME” (priority 2020, published 2023).
Like-named read-outs stand apart in the source and are kept apart here.

Tested on: HBV rcDNA
Assay: HepDE19 assay with bDNA quantitation of HBV rcDNA
Type: cell-based, hepatitis B virus (HBV)
How it was run: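 HepDE19 cells were switched to tetracycline-free medium and exposed to compound (0.5% DMSO final) for 7 days at 37° C. rcDNA was then quantified by bDNA with an HBV-specific probe set. In parallel, viability was read as ATP content (CellTiter-Glo) after 4 days on replicate plates.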

[1] = HepDE19 cells, 7 day incubation, rcDNA measured by Quantigene 2.0 bDNA assay, top concentration 25 μM, read-out: DE-19bDNA EC50
[2] = Hepatitis B virus, HepDE19, 168 h, read-out: DE-19bDNA EC50 (μM), HepDE19 cells, 7 day incubation, rcDNA measured by Quantigene 2.0 bDNA assay, top concentration 25 μM
[3] = Hepatitis B virus, HepDE19, 168 h, HepDE19 cells, 7 day incubation, rcDNA measured by Quantigene 2.0 bDNA assay, top concentration 25 μM, read-out: DE-19bDNA EC50

For `CC(c1c[nH]c(=O)c2c(F)c(F)ccc12)N(C)C(=O)C1Cc2cc(F)ccc2N1` (stereo not drawn) [Compound 76, N-(1-(7,8-Difluoro-1-oxo-1,2-dihydroisoquinolin-4-yl)ethyl)-5-fluoro-N-methylindoline-2-carboxamide], the EC50 [1] was 4.4 µM.

With `COc1ncc(C(C)N(C)C(=O)c2ccc(Br)c(F)c2)c2cc(F)c(F)cc12` (single isomer, unassigned) [Compound 178, 4-Bromo-N-(1-(6,7-difluoro-1-methoxyisoquinolin-4-yl)ethyl)-3-fluoro-N-methylbenzamide] the EC50 [1] was 0.2 µM.

Compound `CC(c1c[nH]c(=O)c2cc(F)c(F)cc12)N(C)C(=O)c1ccc(F)c(C(F)F)c1` (single isomer, unassigned) [Compound 133, N-(1-(6,7-Difluoro-1-oxo-1,2-dihydroisoquinolin-4-yl)ethyl)-3-(difluoromethyl)-4-fluoro-N-methylbenzamide] has an EC50 [1] of 14.7 µM.

In the case of `CC(c1c[nH]c(=O)c2cc(F)c(F)cc12)N(CCCO)C(=O)c1[nH]c2ccccc2c1Cl` (single isomer, unassigned) [Compound 95, 3-Chloro-N-(1-(6,7-difluoro-1-oxo-1,2-dihydroisoquinolin-4-yl)ethyl)-N-(3-hydroxypropyl)-1H-indole-2-carboxamide], the EC50 [1] is reported as 0.4 µM.

With `CC(c1c[nH]c(=O)c2c(F)c(F)ccc12)N(C)C(=O)c1cc2c(Cl)cccn2c1` (single isomer, unassigned) [Compound 93, 8-Chloro-N-(1-(7,8-difluoro-1-oxo-1,2-dihydroisoquinolin-4-yl)ethyl)-N-methylindolizine-2-carboxamide] the EC50 [1] was 0.04 µM.

`CC(c1cn(C)c(=O)c2cc(F)c(F)cc12)N(C)C(=O)c1cc2cc(F)c(F)cc2[nH]1` (single isomer, unassigned) [Compound 173, N-(1-(6,7-difluoro-2-methyl-1-oxo-1,2-dihydroisoquinolin-4-yl)ethyl)-5,6-difluoro-N-methyl-1H-indole-2-carboxamide] showed an EC50 [1] of 2.12 µM.

With `CC(c1c[nH]c(=O)c2cc(F)c(F)cc12)N(C)C(=O)c1cc2ccc(Cl)cn2c1` (single isomer, unassigned) [Compound 111, 6-Chloro-N-(1-(6,7-difluoro-1-oxo-1,2-dihydroisoquinolin-4-yl)ethyl)-N-methylindolizine-2-carboxamide] the EC50 [1] was 1.4 µM.

Work on `C[C@H](c1c[nH]c(=O)c2ccccc12)N(C)C(=O)c1cc2cc(F)ccc2[nH]1` [Compound 157, (R)-5-Fluoro-N-methyl-N-(1-(1-oxo-1,2-dihydroisoquinolin-4-yl)ethyl)-1H-indole-2-carboxamide] yielded an EC50 [2] of 0.15 µM.

Work on `CC(c1c[nH]c(=O)c2cc(F)c(F)cc12)N(C)C(=O)c1cc(F)c(F)c(F)c1` (single isomer, unassigned) [Compound 123, N-(1-(6,7-Difluoro-1-oxo-1,2-dihydroisoquinolin-4-yl)ethyl)-3,4,5-trifluoro-N-methylbenzamide] yielded an EC50 [1] of 22.4 µM.

`CC(c1c[nH]c(=O)c2cc(F)c(F)cc12)N(C)C(=O)c1nc2cc(F)c(F)cc2[nH]1` (single isomer, unassigned) [Compound 49, N-(1-(6,7-Difluoro-1-oxo-1,2-dihydroisoquinolin-4-yl)ethyl)-5,6-difluoro-N-methyl-1H-benzo[d]imidazole-2-carboxamide] was tested, and the EC50 [1] was 3.1 µM.

In the case of `CC(c1c[nH]c(=O)c2cc(F)c(F)cc12)N(C)C(=O)c1cc2ccccc2o1` (single isomer, unassigned) [Compound 26, N-(1-(6,7-Difluoro-1-oxo-1,2-dihydroisoquinolin-4-yl)ethyl)-N-methylbenzofuran-2-carboxamide], the EC50 [1] is reported as 0.35 µM.

`CC(c1c[nH]c(=O)c2cc(F)c(F)cc12)N(C)C(=O)c1n[nH]c2ccccc12` (single isomer, unassigned) [Compound 55, N-(1-(6,7-Difluoro-1-oxo-1,2-dihydroisoquinolin-4-yl)ethyl)-N-methyl-2H-indazole-3-carboxamide] was tested, and the EC50 [3] was 16 µM.

`CC(c1c[nH]c(=O)c2c(F)c(F)ccc12)N(C)C(=O)C1Cc2c(F)cc(F)cc2N1` (stereo not drawn) [Compound 66, N-(1-(7,8-Difluoro-1-oxo-1,2-dihydroisoquinolin-4-yl)ethyl)-4,6-difluoro-N-methylindoline-2-carboxamide] showed an EC50 [1] of 0.21 µM.

Work on `CC(c1c[nH]c(=O)c2cc(F)c(F)cc12)N(CCCO)C(=O)Cc1cc2ccccc2[nH]1` (single isomer, unassigned) [Compound 84, N-(1-(6,7-Difluoro-1-oxo-1,2-dihydroisoquinolin-4-yl)ethyl)-N-(3-hydroxypropyl)-2-(1H-indol-2-yl)acetamide] yielded an EC50 (read-out: DE-19bDNA EC50, HepDE19 cells, 7 day incubation, rcDNA measured by Quantigene 2.0 bDNA assay, top concentration 25 μM) of 0.42 µM.

Compound `CC(c1c[nH]c(=O)c2cc(F)c(F)cc12)N(C)C(=O)c1cc2c(Cl)cccn2c1` (single isomer, unassigned) [Compound 77, 8-Chloro-N-(1-(6,7-difluoro-1-oxo-1,2-dihydroisoquinolin-4-yl)ethyl)-N-methylindolizine-2-carboxamide] has an EC50 [1] of 2 µM.

In the case of `CC(c1c[nH]c(=O)c2cc(F)c(F)cc12)N(C)C(=O)c1cc2c([nH]1)CCC(F)(F)C2` (single isomer, unassigned) [Compound 89, N-(1-(6,7-Difluoro-1-oxo-1,2-dihydroisoquinolin-4-yl)ethyl)-5,5-difluoro-N-methyl-4,5,6,7-tetrahydro-1H-indole-2-carboxamide], the EC50 [1] is reported as 1.8 µM.

Work on `CC(c1c[nH]c(=O)c2cc(F)c(F)cc12)N(C)C(=O)[C@H]1Cc2ccccc2CN1` (single isomer, unassigned) [Compound 32] yielded an EC50 [1] of at least 25 µM.

`CC(c1cn(C)c(=O)c2cc(F)c(F)cc12)N(C)C(=O)c1ccc(C(F)(F)F)c(F)c1` (single isomer, unassigned) [Compound 165, N-(1-(6,7-difluoro-2-methyl-1-oxo-1,2-dihydroisoquinolin-4-yl)ethyl)-3-fluoro-N-methyl-4-(trifluoromethyl)benzamide] gave an EC50 [3] of 2.34 µM.

In the case of `CC(c1c[nH]c(=O)c2cc(F)c(F)cc12)N(C)C(=O)C1Cc2c(F)cc(F)cc2N1` (stereo not drawn) [Compound 100, N-(1-(6,7-Difluoro-1-oxo-1,2-dihydroisoquinolin-4-yl)ethyl)-4,6-difluoro-N-methylindoline-2-carboxamide], the EC50 [1] is reported as 0.8 µM.

`CC(c1c[nH]c(=O)c2cc(F)c(F)cc12)N(C)C(=O)[C@H]1Cc2ccccc2N1` (single isomer, unassigned) [Compound 21] showed an EC50 [1] of 0.3 µM.

`CC(c1c[nH]c(=O)c2cc(F)c(F)cc12)N(C)C(=O)c1cn2ccccc2n1` (single isomer, unassigned) [Compound 46, N-(1-(6,7-Difluoro-1-oxo-1,2-dihydroisoquinolin-4-yl)ethyl)-N-methylimidazo[1,2-a]pyridine-2-carboxamide] gave an EC50 [1] of 21 µM.

Work on `C[C@H](c1c[nH]c(=O)c2ccccc12)N(C)C(=O)c1cc2ccccn2c1` [Compound 152, (R)-N-Methyl-N-(1-(1-oxo-1,2-dihydroisoquinolin-4-yl)ethyl)indolizine-2-carboxamide] yielded an EC50 [2] of 0.47 µM.

Work on `CC(c1c[nH]c(=O)c2cc(F)c(F)cc12)N(C)C(=O)c1ccc(F)c(C(F)F)c1` (single isomer, unassigned) [Compound 134, N-(1-(6,7-Difluoro-1-oxo-1,2-dihydroisoquinolin-4-yl)ethyl)-3-(difluoromethyl)-4-fluoro-N-methylbenzamide] yielded an EC50 [1] of 0.06 µM.

In the case of `C[C@H](c1c[nH]c(=O)c2cc(F)c(F)cc12)N(C)C(=O)c1ccn2cccc2c1` [Compound 187, (R)-N-(1-(6,7-Difluoro-1-oxo-1,2-dihydroisoquinolin-4-yl)ethyl)-N-methylindolizine-7-carboxamide], the EC50 [2] is reported as 0.18 µM.

In the case of `CC(c1c[nH]c(=O)c2cc(F)c(F)cc12)N(C)C(=O)c1c[nH]c2ccccc12` (single isomer, unassigned) [Compound 53, N-(1-(6,7-Difluoro-1-oxo-1,2-dihydroisoquinolin-4-yl)ethyl)-N-methyl-1H-indole-3-carboxamide], the EC50 [1] is reported as at least 25 µM.

`CC(c1cn(C)c(=O)c2cc(F)c(F)cc12)N(C)C(=O)c1cc2c(F)cccn2c1` (single isomer, unassigned) [Compound 171, N-(1-(6,7-difluoro-2-methyl-1-oxo-1,2-dihydroisoquinolin-4-yl)ethyl)-8-fluoro-N-methylindolizine-2-carboxamide] showed an EC50 [1] of 16.4 µM.

`CC(c1c[nH]c(=O)c2cc(F)c(F)cc12)N(C)C(=O)C1Cc2c(F)cc(F)cc2N1` (stereo not drawn) [Compound 99, N-(1-(6,7-Difluoro-1-oxo-1,2-dihydroisoquinolin-4-yl)ethyl)-4,6-difluoro-N-methylindoline-2-carboxamide] was tested, and the EC50 [1] was 0.07 µM.

`CC(C)CN(C(=O)c1cc2ccccc2[nH]1)C(C)c1c[nH]c(=O)c2cc(F)c(F)cc12` (single isomer, unassigned) [Compound 4, N-(1-(6,7-Difluoro-1-oxo-1,2-dihydroisoquinolin-4-yl)ethyl)-N-isobutyl-1H-indole-2-carboxamide] was tested, and the EC50 [1] was 0.01 µM.

`COc1ncc(C(C)N(C)C(=O)c2cc3c(F)cccn3c2)c2cc(F)c(F)cc12` (single isomer, unassigned) [Compound 180, N-(1-(6,7-difluoro-1-methoxyisoquinolin-4-yl)ethyl)-8-fluoro-N-methylindolizine-2-carboxamide] gave an EC50 [1] of 0.24 µM.

With `CC(c1cn(C)c(=O)c2cc(F)c(F)cc12)N(C)C(=O)[C@@H]1Cc2ccccc2N1` (stereo partly drawn) [Compound 183, (2S)-N-(1-(6,7-difluoro-2-methyl-1-oxo-1,2-dihydroisoquinolin-4-yl)ethyl)-N-methylindoline-2-carboxamide] the EC50 [1] was 0.07 µM.
